Data taken from US12084472B2 (Ardelyx, Inc., priority 2015, dated 2024).

target: T1, human TGR5 (Homo sapiens, UniProt Q8TDU6); test: Cell-based TGR5 assay (cAMP generation, HTRF); conditions: HEK293 cells stably transfected with human TGR5; cAMP by HTRF; 30 minutes at 37° C.; read-out: pEC50 Human TGR5 (converted)
T1 construct: expressed in transfected cells; host or cells: HEK293
T1 sequence (Q8TDU6 1-330): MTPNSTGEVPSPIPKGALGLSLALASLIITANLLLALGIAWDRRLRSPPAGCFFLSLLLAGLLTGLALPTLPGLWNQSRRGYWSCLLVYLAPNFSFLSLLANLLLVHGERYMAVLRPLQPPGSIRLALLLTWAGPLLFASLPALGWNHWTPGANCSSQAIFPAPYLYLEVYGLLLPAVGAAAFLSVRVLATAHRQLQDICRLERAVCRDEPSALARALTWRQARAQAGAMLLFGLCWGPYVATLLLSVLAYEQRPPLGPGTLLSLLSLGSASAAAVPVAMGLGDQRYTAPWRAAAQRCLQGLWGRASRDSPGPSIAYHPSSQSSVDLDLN
Procedure, shortened: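 Read-out was HTRF detection of cAMP, converted to concentration via a standard curve and fitted (3-parameter logistic) for pEC50 and maximal response. Agonist stimulation used HEK293 cells stably transfected with human TGR5, incubated 30 min at 37° C in IBMX-containing buffer at 0.05 nM to 10 μM compound.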

Structure (SMILES) | EC50 [nM]
CC(C)C(=O)N(CCCCc1cc(Cl)c(COC2(c3cnccc3-c3ccccc3OC3CC3)CC2)cc1Cl)C[C@H](O)[C@@H](O)[C@H](O)[C@H](O)CO [Compound I-69, N-{4-[2,5-dichloro-4-({1-[4-(2-cyclopropoxyphenyl)pyridin-3-yl]cyclopropoxy}methyl)phenyl]butyl}-2-methyl-N-[(2S,3R,4R,5R)-2,3,4,5,6-pentahydroxyhexyl]propanamide] | 126 to 1000
C[C@@H](CCCCNC(=O)NC[C@H](O)[C@@H](O)[C@H](O)[C@H](O)CO)c1ccc(Cl)c(COC2(c3cnccc3-c3ccccc3OC3CC3)CC2)c1 (single isomer, unassigned) [Compound I-274] | < 100
Clc1ccc(CNC2(c3cnccc3-c3ccccc3OC3CC3)CC2)c(Cl)c1 [Compound I-28, 1-[4-(2-cyclopropoxyphenyl)pyridin-3-yl]-N-[(2,4-dichlorophenyl)methyl]cyclopropan-1-amine] | 126 to 1000
CC(CO)Oc1ccccc1-c1ccncc1C1(NCc2cc(Cl)ccc2Cl)CC1 (stereo not shown) [Compound I-20, 2-{2-[3-(1-{[(2,5-dichlorophenyl)methyl]amino}cyclopropyl)pyridin-4-yl]phenoxy}propan-1-ol] | 126 to 1000
COCCN(CCCCCNC(=O)N[C@@H](CO)[C@@H](O)[C@H](O)[C@H](O)CO)S(=O)(=O)c1ccc(Cl)c(COC2(c3cnccc3-c3ccccc3OC3CC3)CC2)c1 [Compound I-413, 1-{5-[N-(2-methoxyethyl)4-chloro-3-({1-[4-(2-cyclopropoxyphenyl)pyridin-3-yl]cyclopropoxy}methyl)benzenesulfonamido]pentyl}-3-[(2S,3R,4S,5R)-1,3,4,5,6-pentahydroxyhexan-2-yl]urea] | < 100
CC(CCCN(CCCCO)C(=O)[C@@H](O)[C@@H](O)[C@H](O)[C@@H](O)CO)c1ccc(Cl)c(CNC2(c3cnccc3-c3ccccc3OC3CC3)CC2)c1 (stereo partly drawn) [Compound I-283, (2S,3S,4R,5S)-N-(4-{4-chloro-3-[({1-[4-(2-cyclopropoxyphenyl)pyridin-3-yl]cyclopropyl}amino)methyl]phenyl}pentyl)-2,3,4,5,6-pentahydroxy-N-(4-hydroxybutyl)hexanamide] | < 100
CN(CCCCNC(=O)NC[C@H](O)[C@@H](O)[C@H](O)[C@H](O)CO)S(=O)(=O)c1cc(CNC2(c3cnccc3-c3ccccc3OC3CC3)CC2)c(Cl)cc1Cl [Compound I-392, 1-[4-(N-methyl[2,4-dichloro-5-[([1-[4-(2-cyclopropoxyphenyl)pyridin-3-yl]cyclopropyl]amino)methyl]benzene]sulfonamido)butyl]-3-[(2S,3R,4R,5R)-2,3,4,5,6-pentahydroxyhexyl]urea] | < 100

Next, values leading:

EC50 [nM] | Structure (SMILES)
< 100 | O=C(CN1CCC(NC(=O)NCCCCSc2ccc(Cl)c(COC3(c4cnccc4-c4ccccc4OC4CC4)CC3)c2)CC1)NC[C@H](O)[C@@H](O)[C@H](O)[C@H](O)CO [Compound I-633, 2-(4-{[(4-{[4-chloro-3-({1-[4-(2-cyclopropoxyphenyl)pyridin-3-yl]cyclopropoxy}methyl)phenyl]sulfanyl}butyl)carbamoyl]amino}piperidin-1-yl)-N-[(2S,3R,4R,5R)-2,3,4,5,6-pentahydroxyhexyl]acetamide]
126 to 1000 | CC(=O)NCCN(CCCCSc1ccc(Cl)c(CNC2(c3cnccc3-c3ccccc3OC3CC3)CC2)c1)C(=O)[C@@H](O)[C@@H](O)[C@H](O)[C@@H](O)CO [Compound I-563, (2S,3S,4R,5S)-N-[4-({4-chloro-3-[({1-[4-(2-cyclopropoxyphenyl)pyridin-3-yl]cyclopropyl}amino)methyl]phenyl}sulfanyl)butyl]-N-(2-acetamidoethyl)-2,3,4,5,6-pentahydroxyhexanamide]
126 to 1000 | O=C(N[C@@H](CO)[C@@H](O)[C@H](O)[C@H](O)CO)c1cccc(OCc2ccc(Cl)c(COC3(c4cnccc4-c4ccccc4OC4CC4)CC3)c2)c1 [Compound I-756, 3-((4-chloro-3-((1-(4-(2-cyclopropoxyphenyl)pyridin-3-yl)cyclopropoxy)methyl)benzyl)oxy)-N-((2S,3R,4S,5R)-1,3,4,5,6-pentahydroxyhexan-2-yl)benzamide]
